Our source for the IC50 values is patent publication US20240083861A1, “HSD17B13 INHIBITORS AND USES THEREOF” (FL2022-001, Inc., priority 2020, published 2024).

This experiment addresses T1, Recombinant human HSD17B13 enzyme (Homo sapiens, UniProt Q7Z5P4).
T1 sequence (Q7Z5P4 20-300): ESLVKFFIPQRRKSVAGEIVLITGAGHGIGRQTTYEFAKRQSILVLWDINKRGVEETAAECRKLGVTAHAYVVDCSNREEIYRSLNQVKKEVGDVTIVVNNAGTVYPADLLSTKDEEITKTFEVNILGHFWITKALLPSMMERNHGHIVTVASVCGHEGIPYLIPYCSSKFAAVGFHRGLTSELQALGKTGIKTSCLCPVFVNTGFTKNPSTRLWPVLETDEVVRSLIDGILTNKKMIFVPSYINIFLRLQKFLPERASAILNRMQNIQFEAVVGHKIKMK
As to the kind of experiment: HSD17b13 NAD(P)H-Glo biochemical assay. As to conditions: 50 uM estradiol, 1 mM NAD+, NAD(P)H-Glo luminescence; read-out: HSD17β13 IC50. In a few lines:
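Recombinant human HSD17B13 in 20 mM Tris pH7.4 with 0.002% Tween-20 and 0.02% BSA was preincubated with inhibitor for 20 minutes at RT. The reaction ran 3 hours at 37° C with 50 uM estradiol and 1 mM NAD+ (final). NADH formed was detected by NAD(P)H-Glo luminescence after 1 hour at RT.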
As a reminder, the IC50 is the concentration that gives 50% inhibition. As for `Oc1cc(-c2n[nH]c3cc(-c4ccc(O)c(Cl)c4)ccc23)ccc1F` [Compound 16, 2-Chloro-4-(3-(4-fluoro-3-hydroxyphenyl)-1H-indazol-6-yl)phenol], the IC50 is 100 to 1000 nM.
In the case of `Cn1nc(-c2ccc(F)c(O)c2)c2ccc(-c3ccc(O)c(Cl)c3)cc21` [Compound 17, 2-Chloro-4-(3-(4-fluoro-3-hydroxyphenyl)-1-methyl-1H-indazol-6-yl)phenol], the 50% inhibitory concentration (IC50) fell in the range of 100 to 1000 nM.
To `Cn1nc(-c2cc(C(F)(F)F)c(F)c(O)c2F)c2cnc(N3CCOC4(CCC4)C3)nc21` [Compound 18, 2,6-Difluoro-3-(1-methyl-6-(5-oxa-8-azaspiro[3.5]nonan-8-yl)-1H-pyrazolo[3,4-d]pyrimidin-3-yl)-5-(trifluoromethyl)phenol] belongs less than 100 nM; to `Cn1nc(-c2cc(C(F)(F)F)c(F)c(O)c2F)c2cnc(N3CCOCC3CO)nc21` (stereo not shown) [Compound 18.01, 2,6-Difluoro-3-(6-(3-(hydroxymethyl)morpholino)-1-methyl-1H-pyrazolo[3,4-d]pyrimidin-3-y1)-5-(trifluoromethyl)phenol], less than 100 nM.
The value for `Cn1nc(-c2cc(C(F)(F)F)c(F)c(O)c2F)c2cnc(N3CCOC(CO)C3)nc21` (stereo not shown) [Compound 18.02, 2,6-Difluoro-3-(6-(2-(hydroxymethyl)morpholino)-1-methyl-1H-pyrazolo[3,4-d]pyrimidin-3-y1)-5-(trifluoromethyl)phenol] was 100 to 1000 nM; that for `COCC1COCCN1c1ncc2c(-c3cc(C(F)(F)F)c(F)c(O)c3F)nn(C)c2n1` (stereo not shown) [Compound 18.03, 2,6-Difluoro-3-(6-(3-(methoxymethyl)morpholino)-1-methyl-1H-pyrazolo[3,4-d]pyrimidin-3-y1)-5-(trifluoromethyl)phenol] was less than 100 nM.
On to `Cn1nc(-c2cc(C(F)(F)F)c(F)c(O)c2F)c2cnc(N3CCC(O)CC3)nc21` [Compound 18.04, 1-(3-(2,4-Difluoro-3-hydroxy-5-(trifluoromethyl)phenyl)-1-methyl-1H-pyrazolo[3,4-d]pyrimidin-6-y1)piperidin-4-ol], for which the IC50 is less than 100 nM.
For `Cn1nc(-c2cc(C(F)(F)F)c(F)c(O)c2F)c2cnc(N3CCCC(O)C3)nc21` (stereo not shown) [Compound 18.05, 1-(3-(2,4-Difluoro-3-hydroxy-5-(trifluoromethyl)phenyl)-1-methyl-1H-pyrazolo[3,4-d]pyrimidin-6-y1)piperidin-3-ol], the IC50 was less than 100 nM.
As to `COC1CCCN(c2ncc3c(-c4cc(C(F)(F)F)c(F)c(O)c4F)nn(C)c3n2)C1` (stereo not shown) [Compound 18.06, 2,6-Difluoro-3-(6-(3-methoxypiperidin-1-yl)-1-methyl-1H-pyrazolo[3,4-d]pyrimidin-3-yl)-5-(trifluoromethyl)phenol], the IC50 is less than 100 nM.
In the case of `Cn1nc(-c2cc(C(F)(F)F)c(F)c(O)c2F)c2cnc(N3CCOC(C(N)=O)C3)nc21` (stereo not shown) [Compound 18.07, 4-(3-(2,4-Difluoro-3-hydroxy-5-(trifluoromethyl)phenyl)-1-methyl-1H-pyrazolo[3,4-d]pyrimidin-6-yl)morpholine-2-carboxamide], the IC50 is less than 100 nM.
To `CN1CCC2(CCN(c3ncc4c(-c5cc(C(F)(F)F)c(F)c(O)c5F)nn(C)c4n3)CC2)C1=O` [Compound 18.08, 8-(3-(2,4-Difluoro-3-hydroxy-5-(trifluoromethyl)phenyl)-1-methyl-1H-pyrazolo[3,4-d]pyrimidin-6-yl)-2-methyl-2,8-diazaspiro[4.5]decan-1-one] belongs less than 100 nM; to `Cn1nc(-c2cc(C(F)(F)F)c(F)c(O)c2F)c2cnc(N3CCC(C(N)=O)CC3)nc21` [Compound 18.09, 1-(3-(2,4-Difluoro-3-hydroxy-5-(trifluoromethyl)phenyl)-1-methyl-1H-pyrazolo[3,4-d]pyrimidin-6-yl)piperidine-4-carboxamide], less than 100 nM; to `Cn1nc(-c2cc(C(F)(F)F)c(F)c(O)c2F)c2cnc(N3CCC4(CCNC4=O)CC3)nc21` [Compound 18.10, 8-(3-(2,4-Difluoro-3-hydroxy-5-(trifluoromethyl)phenyl)-1-methyl-1H-pyrazolo[3,4-d]pyrimidin-6-yl)-2,8-diazaspiro[4.5]decan-1-one], less than 100 nM.
The value for `Cn1nc(-c2cc(C(F)(F)F)c(F)c(O)c2F)c2cnc(N3[C@@H]4CNC[C@H]3COC4)nc21` [Compound 18.11, 3-(6-((1R,5S)-3-oxa-7,9-diazabicyclo[3.3.1]nonan-9-y1)-1-methyl-1H-pyrazolo[3,4-d]pyrimidin-3-y1)-2,6-difluoro-5-(trifluoromethyl)phenol] was 100 to 1000 nM; that for `Cn1nc(-c2cc(C(F)(F)F)c(F)c(O)c2F)c2cnc(N3CC4(CCCNC4=O)C3)nc21` [Compound 18.12, 2-(3-(2,4-Difluoro-3-hydroxy-5-(trifluoromethyl)phenyl)-1-methyl-1H-pyrazolo[3,4-d]pyrimidin-6-yl)-2,6-diazaspiro[3.5]nonan-5-one] was 100 to 1000 nM.
For `Cn1nc(-c2cc(C(F)(F)F)c(F)c(O)c2F)c2cnc(N3CCC34CCOCC4)nc21` [Compound 18.13, 2,6-Difluoro-3-(1-methy1-6-(7-oxa-1-azaspiro[3.5]nonan-1-y1)-1H-pyrazolo[3,4-d]pyrimidin-3-y1)-5-(trifluoromethyl)phenol], the IC50 is less than 100 nM.
Regarding `Cn1nc(-c2cc(C(F)(F)F)c(F)c(O)c2F)c2cnc(N3CCC(CO)CC3)nc21` [Compound 18.14, 2,6-Difluoro-3-(6-(4-(hydroxymethyl)piperidin-1-y1)-1-methyl-1H-pyrazolo[3,4-d]pyrimidin-3-y1)-5-(trifluoromethyl)phenol], the IC50 was less than 100 nM.
`Cn1nc(-c2cc(C(F)(F)F)c(F)c(O)c2F)c2cnc(N3CCC4(CCC(=O)N4)CC3)nc21` [Compound 18.15, 8-(3-(2,4-Difluoro-3-hydroxy-5-(trifluoromethyl)phenyl)-1-methyl-1H-pyrazolo[3,4-d]pyrimidin-6-yl)-1,8-diazaspiro[4.5]decan-2-one]: the IC50 was less than 100 nM.
For `Cn1nc(-c2cc(C(F)(F)F)c(F)c(O)c2F)c2cnc(N3CCC4(CC3)CC(=O)N4)nc21` [Compound 18.16, 7-(3-(2,4-Difluoro-3-hydroxy-5-(trifluoromethyl)phenyl)-1-methyl-1H-pyrazolo[3,4-d]pyrimidin-6-yl)-1,7-diazaspiro[3.5]nonan-2-one], the IC50 is less than 100 nM.
As for `CN1CCN(c2ncc3c(-c4cc(C(F)(F)F)c(F)c(O)c4F)nn(C)c3n2)CC12CC2` [Compound 18.17, 2,6-Difluoro-3-(1-methyl-6-(4-methyl-4,7-diazaspiro[2.5]octan-7-y1)-1H-pyrazolo[3,4-d]pyrimidin-3-y1)-5-(trifluoromethyl)phenol], the IC50 was less than 100 nM.
Turning to `Cn1nc(-c2cc(C(F)(F)F)c(F)c(O)c2F)c2cnc(N3CCNC4(CC4)C3)nc21` [Compound 18.18, 2,6-Difluoro-3-(1-methyl-6-(4,7-diazaspiro[2.5]octan-7-y1)-1H-pyrazolo[3,4-d]pyrimidin-3-y1)-5-(trifluoromethyl)phenol], the IC50 is less than 100 nM.
For the compound `CCN1CCN(c2ncc3c(-c4cc(C(F)(F)F)c(F)c(O)c4F)nn(C)c3n2)CC1=O` [Compound 18.19, 4-(3-(2,4-Difluoro-3-hydroxy-5-(trifluoromethyl)phenyl)-1-methyl-1H-pyrazolo[3,4-d]pyrimidin-6-yl)-1-ethylpiperazin-2-one], the IC50 lay within 100 to 1000 nM.
To `COCC1(N(C)c2ncc3c(-c4cc(C(F)(F)F)c(F)c(O)c4F)nn(C)c3n2)CCC1` [Compound 18.20, 2,6-Difluoro-3-(6-((1-(methoxymethyl)cyclobutyl)(methy 1)amino)-1-methy1-1H-pyrazolo[3,4-d]pyrimidin-3-y1)-5-(trifluoromethyl)phenol] belongs less than 100 nM; to `Cn1nc(-c2cc(C(F)(F)F)c(F)c(O)c2F)c2cnc(N3CCN(C4CC4)C(=O)C3)nc21` [Compound 18.21, 1-Cyclopropyl-4-(3-(2,4-difluoro-3-hydroxy-5-(trifluoromethyl)phenyl)-1-methyl-1H-pyrazolo[3,4-d]pyrimidin-6-y1)piperazin-2-one], less than 100 nM; to `CC(=O)NC1CCN(c2ncc3c(-c4cc(C(F)(F)F)c(F)c(O)c4F)nn(C)c3n2)CC1` [Compound 18.22, N-(1-(3-(2,4-Difluoro-3-hydroxy-5-(trifluoromethyl)phenyl)-1-methyl-1H-pyrazolo[3,4-d]pyrimidin-6-y1)piperidin-4-yl)acetamide], less than 100 nM.
The value for `Cn1nc(-c2cc(C(F)(F)F)c(F)c(O)c2F)c2cnc(N3CCC(NS(C)(=O)=O)CC3)nc21` [Compound 18.23, N-(1-(3-(2,4-Difluoro-3-hydroxy-5-(trifluoromethyl)phenyl)-1-methyl-1H-pyrazolo[3,4-d]pyrimidin-6-yl)piperidin-4-yl)methanesulfonamide] was less than 100 nM.
The value for `Cn1nc(-c2cc(C(F)(F)F)c(F)c(O)c2F)c2cnc(N3CCC4(CCN4)CC3)nc21` [Compound 18.24, 2,6-Difluoro-3-(1-methyl-6-(1,7-diazaspiro[3.5]nonan-7-yl)-1H-pyrazolo[3,4-d]pyrimidin-3-y1)-5-(trifluoromethyl)phenol] was 100 to 1000 nM.
On to `Cn1nc(-c2cc(C(F)(F)F)c(F)c(O)c2F)c2cnc(N3CCC4(CC3)CNC4=O)nc21` [Compound 18.25, 7-(3-(2,4-Difluoro-3-hydroxy-5-(trifluoromethyl)phenyl)-1-methyl-1H-pyrazolo[3,4-d]pyrimidin-6-yl)-2,7-diazaspiro[3.5]nonan-1-one], for which the half-inhibitory concentration (IC50) was less than 100 nM.
